# Results published in patent US7348400B2 (priority 2001, dated 2008).
# Entries after “also recorded” stand apart in the source; their conditions may differ.
# Experiments:
# [1] = in vivo; cited from earlier work
# [2] = test system: unmyelinated primary afferent sensory nerves; conditions: rat, in vivo
# [3] = test system: injured nerve (sensory nerves); conditions: rat, in vivo
# [4] = rat, in vivo
# [5] = rat, in vivo; remark: listed apart in the source
# neuronal nAChR = assay type: cell-based, bovine
# [6] = test system: rats with chronic constriction injury; conditions: rat, in vivo
# nAChR = assay type: binding, bovine
compound,measurement,setting,value
CSCC[C@@H]1NC(=O)[C@H](CC(C)C)NC(=O)[C@H](CCCNC(=N)N)NC(=O)[C@H](CO)NC(=O)[C@@H]2CSSC[C@@H]3NC(=O)[C@H](CO)NC(=O)CNC(=O)[C@H]([C@@H](C)O)NC(=O)[C@H](CSSC[C@H](N)C(=O)N[C@@H](CCCCN)C(=O)NCC(=O)N[C@@H](CCCCN)C(=O)NCC(=O)N[C@@H](C)C(=O)N[C@@H](CCCCN)C(=O)N2)NC(=O)[C@H](CSSC[C@@H](C(N)=O)NC(=O)[C@H](CCCCN)NC(=O)CNC(=O)[C@H](CO)NC(=O)[C@H](CCCNC(=N)N)NC3=O)NC(=O)[C@H](CC(=O)O)NC(=O)[C@H](Cc2ccc(O)cc2)NC1=O [MVIIA],potency relative to morphine,[1],1000 times
same,inhibition of the vascular response to LFES of sensory nerves,[2],significant inhibition; also recorded: more effective
same,recovery of vascular response to substance P compared to control,[3],54%
"CC[C@H](C)[C@@H]1NC(=O)[C@H](CCC(=O)O)NC(=O)[C@@H]2CCCN2C(=O)[C@H](Cc2cnc[nH]2)NC(=O)[C@H](CC(=O)O)NC(=O)[C@H](Cc2ccc(O)cc2)NC(=O)[C@H](CC(N)=O)NC(=O)[C@@H]2CSSC[C@H](NC(=O)CN)C(=O)N[C@@H](CSSC[C@@H](C(N)=O)NC1=O)C(=O)N[C@@H](CO)C(=O)N[C@@H](CC(=O)O)C(=O)N1CCC[C@H]1C(=O)N[C@@H](CCCNC(=N)N)C(=O)N2 [Vc1.1, GCCSDPRCNYDHPEIC-NH2]",adverse side-effects,[4],not observed any adverse side-effects
same,effect upon systemic blood pressure,[5],no effect
G C C S H P A C Y A N N Q D Y C-NH2 [An1.1],inhibition of the neuronal nicotinic response in cultured BCCs (comparison),neuronal nAChR,not nearly as inhibitory as Vc1.1
same,nature of the inhibition of nicotine-evoked catecholamine release,neuronal nAChR,competitive inhibitor
same,protection against nicotinic receptor desensitisation,neuronal nAChR,protects against nicotinic receptor desensitisation
GCCSD4 -HypRCNYDHPgammacarboxy-GluIC-NH2 [Vc1.1ptm],long-term effectiveness in inhibiting neuropathic pain,[6],without effect; also recorded: but not Vc1.1ptm was effective
same,displacement of 3H-epibatidine binding,nAChR,"displaced the first component, but did not significantly displace the second component"
same,inhibition of sensory nerve activity (comparison),[2],less effective than Vc1.1
same,recovery of vascular response to substance P compared to control,[3],85%
